Measurements reported in patent US11524940B1, “Inhibitors of cysteine proteases and methods of use thereof” (priority 2020, dated 2022).

What follows are compounds tested against 229E Mpro (Human coronavirus 229E (HCoV-229E), UniProt P0C6X1) (assay: 229E Mpro activity). Conditions: 229E Mpro EC50.
Assay type: biochemical
Procedure: Compounds are assayed using standard methods to assess compound activity and IC50. […] The assay buffer contains 20 mM of Tris-HCl (pH 7.3), 100 mM of NaCl, 1 mM of EDTA, 5mM of TCEP and 0.1% BSA.

Sequence of 229E Mpro (P0C6X1 2966-3267 limits assumed): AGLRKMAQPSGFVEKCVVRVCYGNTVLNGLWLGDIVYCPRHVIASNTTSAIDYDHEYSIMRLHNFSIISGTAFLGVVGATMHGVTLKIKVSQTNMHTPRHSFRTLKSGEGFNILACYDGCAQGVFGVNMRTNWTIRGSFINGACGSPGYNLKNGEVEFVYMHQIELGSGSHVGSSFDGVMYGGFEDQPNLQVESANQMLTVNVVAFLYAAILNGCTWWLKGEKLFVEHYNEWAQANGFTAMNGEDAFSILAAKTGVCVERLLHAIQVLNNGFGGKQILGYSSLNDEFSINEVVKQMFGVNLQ

With COc1cccc2[nH]c(C(=O)N3CC4(CC3C(=O)N[C@H](C#N)C[C@@H]3CCCNC3=O)CC(F)(F)C4)cc12 (single isomer, unassigned) [723 (Isomer 1)] the EC50 was 10000 to 30000 nM.

Same assay, conditions: read-out: 229E Mpro EC50

N#C[C@H](C[C@@H]1CCCNC1=O)NC(=O)[C@@H](CC1CC1)NC(=O)c1cc2cccc(Cl)c2[nH]1 [Compound 639A, 7-Chloro-N-[(1R)-2-[[(1S)-1-cyano-2-[(3S)-2-oxo-3-piperidyl]ethyl]amino]-1-(cyclopropylmethyl)-2-oxo-ethyl]-1H-indole-2-carboxamide] and N#C[C@H](C[C@@H]1CCCNC1=O)NC(=O)[C@H](CC1CC1)NC(=O)c1cc2ccc(Cl)c(Cl)c2[nH]1 [Compound 727, 6,7-dichloro-N-[(1S)-2-[[(1S)-1-cyano-2-[(3S)-2-oxo-3-piperidyl]ethyl]amino]-1-(cyclopropylmethyl)-2-oxo-ethyl]-1H-indole-2-carboxamide] cannot be ordered by EC50: < 2000 nM for the first, < 2000 nM for the second.

COc1cc(Cl)c2[nH]c(C(=O)N[C@@H](CC(C)(C)C)C(=O)N[C@H](C#N)C[C@@H]3CCNC3=O)cc2c1 [Compound 894] and COc1cc(Cl)cc2[nH]c(C(=O)N[C@@H](CC(C)(C)C)C(=O)N[C@H](C#N)C[C@@H]3CCCNC3=O)cc12 [Compound 1149] cannot be ordered by EC50: < 2000 nM for the first, < 2000 nM for the second.

CC(C)(C)OC(=O)Nc1cccn([C@@H](CC2CC2)C(=O)N[C@H](C#N)C[C@@H]2CCNC2=O)c1=O (single isomer, unassigned) [505 (Isomer 2)] and CC(C)(C)OC(=O)Nc1cccn([C@H](CC2CC2)C(=O)N[C@H](C#N)C[C@@H]2CCNC2=O)c1=O (single isomer, unassigned) [505 (Isomer 1)] cannot be ordered by EC50: > 30000 nM for the first, > 30000 nM for the second.

First: COc1cccc2[nH]c(C(=O)N[C@H](C(=O)N[C@H](C#N)C[C@@H]3CCNC3=O)C3Cc4ccccc4C3)cc12 [Compound 149, N-[(1S)-2-[[(1S)-1-cyano-2-[(3S)-2-oxopyrrolidin-3-yl]ethyl]amino]-1-indan-2-yl-2-oxo-ethyl]-4-methoxy-1H-indole-2-carboxamide]
Second: COc1cccc2[nH]c(C(=O)N[C@@H](CC3CC3)C(=O)N[C@@H](C#N)C[C@@H]3CCCNC3=O)cc12 (single isomer, unassigned) [491 (Isomer 2)]
The EC50 of the first is lower: 2000 to 10000 nM for the first, > 30000 nM for the second. The first is the more potent here.

COCCOCCOc1cccc2[nH]c(C(=O)N[C@@H](CC3CC3)C(=O)N[C@H](C#N)C[C@@H]3CCCNC3=O)cc12 [Compound 1057, N-[(1S)-2-[[(1S)-1-cyano-2-[(3S)-2-oxo-3-piperidyl]ethyl]amino]-1-(cyclopropylmethyl)-2-oxo-ethyl]-4-[2-(2-methoxyethoxy)ethoxy]-1H-indole-2-carboxamide] and COc1cccc2[nH]c(C(=O)N[C@H](CC3CC3)C(=O)N[C@@H](C#N)C[C@@H]3CCCNC3=O)cc12 (single isomer, unassigned) [491 (Isomer 4)] cannot be ordered by EC50: < 2000 nM for the first, < 2000 nM for the second.

COc1ccc2[nH]c(C(=O)N3CC4(CCCCC4)CC3C(=O)N[C@H](C#N)C[C@@H]3CCNC3=O)cc2c1Cl (single isomer, unassigned) [880 (Isomer 2)] and COc1cccc2[nH]c(C(=O)N3CC4(CCCCC4)CC3C(=O)N[C@H](C#N)C[C@@H]3CCCNC3=O)cc12 (single isomer, unassigned) [603a (Isomer 1)] cannot be ordered by EC50: < 2000 nM for the first, < 2000 nM for the second.

N#C[C@H](C[C@@H]1CCCNC1=O)NC(=O)[C@H](CC1CC1)NC(=O)c1cc2c(Cl)c(F)ccc2[nH]1 [Compound 822, 4-chloro-N-[(1S)-2-[[(1S)-1-cyano-2-[(3S)-2-oxo-3-piperidyl]ethyl]amino]-1-(cyclopropylmethyl)-2-oxo-ethyl]-5-fluoro-1H-indole-2-carboxamide] and N#C[C@H](C[C@@H]1CCCNC1=O)NC(=O)[C@H](CC1CC1)NC(=O)c1cc2cc(Cl)ccc2[nH]1 [Compound 633, 5-chloro-N-[(1S)-2-[[(1S)-1-cyano-2-[(3S)-2-oxo-3-piperidyl]ethyl]amino]-1-(cyclopropylmethyl)-2-oxo-ethyl]-1H-indole-2-carboxamide] cannot be ordered by EC50: < 2000 nM for the first, < 2000 nM for the second.

N#C[C@]1(NC(=O)[C@H](CC2CC2)NC(=O)OCc2ccccc2)C[C@H]2CC[C@@H]1[C@H]1C(=O)NC(=O)[C@@H]21 (single isomer, unassigned) [495 (Isomer 1)] and N#C[C@H](C[C@@H]1CCNC1=O)NC(=O)[C@@H]1CCc2ccc(NCC(=O)Oc3ccccc3)c(=O)n21 [Compound 483, phenyl 2-[[(3S)-3-[[(1S)-1-cyano-2-[(3S)-2-oxopyrrolidin-3-yl]ethyl]carbamoyl]-5-oxo-2,3-dihydro-1H-indolizin-6-yl]amino]acetate] cannot be ordered by EC50: > 30000 nM for the first, > 30000 nM for the second.

CCO[C@@H]1C[C@@H](C(=O)N[C@H](C#N)C[C@@H]2CCNC2=O)N(C(=O)c2cc3c(OC)cccc3[nH]2)C1 [Compound 409, (2S,4R)-N-[(1S)-1-cyano-2-[(3S)-2-oxopyrrolidin-3-yl]ethyl]-4-ethoxy-1-(4-methoxy-1H-indole-2-carbonyl)pyrrolidine-2-carboxamide] and COc1cccc2[nH]c(C(=O)N3C[C@H](OC(C)(C)C)C[C@H]3C(=O)N[C@H](C#N)C[C@@H]3CCNC3=O)cc12 [Compound 165, (2S,4R)-4-(tert-butoxy)-N-((S)-1-cyano-2-((S)-2-oxopyrrolidin-3-yl)ethyl)-1-(4-methoxy-1H-indole-2-carbonyl)pyrrolidine-2-carboxamide] cannot be ordered by EC50: > 30000 nM for the first, > 30000 nM for the second.

First: COc1cccc2[nH]c(C(=O)N[C@H](CN[C@H](C#N)C[C@@H]3CCNC3=O)CC(C)(C)C)cc12 [Compound 659, N-[(1S)-1-[[[(1S)-1-cyano-2-[(3S)-2-oxopyrrolidin-3-yl]ethyl]amino]methyl]-3,3-dimethyl-butyl]-4-methoxy-1H-indole-2-carboxamide]
Second: COc1cccc2[nH]c(C(=O)N[C@@H](CC(C)C)C(=O)N[C@@H](C[C@@H]3CCNC3=O)C(C#N)N3CCCC3)cc12 (single isomer, unassigned) [331 (Isomer 2)]
The EC50 of the first is higher: > 30000 nM for the first, < 2000 nM for the second. The second is the more potent here.

N#Cc1ccc2[nH]c(C(=O)N[C@@H](CC3CC3)C(=O)N[C@H](C#N)C[C@@H]3CCCNC3=O)cc2c1 [Compound 860] and N#C[C@H](C[C@@H]1CCNC1=O)NC(=O)[C@H](CC1CC1)NC(=O)c1cc2ccc(Cl)cc2[nH]1 [Compound 529, 6-chloro-N-[(1S)-2-[[(1S)-1-cyano-2-[(3S)-2-oxopyrrolidin-3-yl]ethyl]amino]-1-(cyclopropylmethyl)-2-oxo-ethyl]-1H-indole-2-carboxamide] cannot be ordered by EC50: < 2000 nM for the first, < 2000 nM for the second.

N#C[C@H](C[C@@H]1CCCNC1=O)NC(=O)[C@H](CC1CC1)NC(=O)c1cc2c(C(F)(F)F)cccc2[nH]1 [Compound 856, N-((S)-1-(((S)-1-cyano-2-((S)-2-oxopiperidin-3-yl)ethyl)amino)-3-cyclopropyl-1-oxopropan-2-yl)-4-(trifluoromethyl)-1H-indole-2-carboxamide] and COc1ccc(F)c2[nH]c(C(=O)N[C@@H](CC3CC3)C(=O)N[C@H](C#N)C[C@@H]3CCCNC3=O)cc12 [Compound 820, N-((S)-1-(((S)-1-cyano-2-((S)-2-oxopiperidin-3-yl)ethyl)amino)-3-cyclopropyl-1-oxopropan-2-yl)-7-fluoro-4-methoxy-1H-indole-2-carboxamide] cannot be ordered by EC50: < 2000 nM for the first, < 2000 nM for the second.

First: COc1cccc2[nH]c(C(=O)N3CCC4(CC4)C[C@H]3C(=O)N[C@H](C#N)C[C@@H]3CCNC3=O)cc12 [Compound 183, (S)-N-((S)-1-cyano-2-((S)-2-oxopyrrolidin-3-yl)ethyl)-6-(4-methoxy-1H-indole-2-carbonyl)-6-azaspiro[2.5]octane-5-carboxamide]
Second: COc1cccc2[nH]c(C(=O)N3CC4(CCC4)CC3C(=O)N[C@H](C#N)C[C@@H]3CCNC3=O)cc12 (single isomer, unassigned) [399A (Isomer 1)]
The EC50 of the first is higher: 2000 to 10000 nM for the first, < 2000 nM for the second.

N#C[C@H](C[C@@H]1CCCNC1=O)NC(=O)[C@H](CC1CC1)NC(=O)c1cc2cc(F)cc(Cl)c2[nH]1 [Compound 830, 7-chloro-N-((S)-1-(((S)-1-cyano-2-((S)-2-oxopiperidin-3-yl)ethyl)amino)-3-cyclopropyl-1-oxopropan-2-yl)-5-fluoro-1H-indole-2-carboxamide] and COc1ccc(Br)c2[nH]c(C(=O)N[C@@H](CC3CC3)C(=O)N[C@H](C#N)C[C@@H]3CCCNC3=O)cc12 [Compound 846] cannot be ordered by EC50: < 2000 nM for the first, < 2000 nM for the second.

First: N#C[C@H](C[C@@H]1CCNC1=O)NC(=O)C1CC2(CCCCC2)CN1C(=O)c1cc2cccc(Cl)c2[nH]1 (single isomer, unassigned) [984 (Isomer 1)]
Second: CN(C(=O)c1cc2cccc(Cl)c2[nH]1)[C@@H](CC1CC1)C(=O)N[C@H](C#N)C[C@@H]1CCCNC1=O [Compound 1137]
The EC50 of the first is lower: < 2000 nM for the first, 2000 to 10000 nM for the second.

First: N#C[C@H](C[C@@H]1CCNC1=O)NC(=O)[C@@H]1C[C@@H](c2ccccc2)CN1C(=O)/C=C/c1ccc(Cl)cc1F [Compound 209, (2S,4S)-1-((E)-3-(4-chloro-2-fluorophenyl)acryloyl)-N-((S)-1-cyano-2-((S)-2-oxopyrrolidin-3-yl)ethyl)-4-phenylpyrrolidine-2-carboxamide]
Second: COc1cccc2[nH]c(C(=O)N3C[C@H](c4ccccc4)C[C@H]3C(=O)N[C@H](C#N)C[C@@H]3CCCNC3=O)cc12 [Compound 611, (2S,4S)-N-[(1S)-1-cyano-2-[(3S)-2-oxo-3-piperidyl]ethyl]-1-(4-methoxy-1H-indole-2-carbonyl)-4-phenyl-pyrrolidine-2-carboxamide]
The EC50 of the first is higher: 2000 to 10000 nM for the first, < 2000 nM for the second. The second is the more potent here.

First: COc1cccc2[nH]c(C(=O)N[C@@H](CC3CC3)C(=O)N[C@@]3(C#N)CCc4cccnc4C3)cc12 [Compound 279]
Second: CCCN1C(=N)C([C@H](C[C@@H]2CCNC2=O)NC(=O)[C@H](CC(C)C)NC(=O)c2cc3c(OC)cccc3[nH]2)OC1=O (stereo partly drawn) [Compound 355, N-((2S)-1-(((1 S)-1-(4-imino-2-oxo-3-propyloxazolidin-5-yl)-2-((S)-2-oxopyrrolidin-3-yl)ethyl)amino)-4-methyl-1-oxopentan-2-yl)-4-methoxy-1H-indole-2-carboxamide]
The EC50 of the first is higher: > 30000 nM for the first, 2000 to 10000 nM for the second. The second is the more potent here.

N#C[C@H](C[C@@H]1CCNC1=O)NC(=O)[C@@H]1CS[C@H]2CC[C@H](N)C(=O)N21 [Compound 479, (3R,6S)-6-amino-N-[(1S)-1-cyano-2-[(3S)-2-oxopyrrolidin-3-yl]ethyl]-5-oxo-2,3,6,7,8,8a-hexahydrothiazolo[3,2-a]pyridine-3-carboxamide] gave an EC50 of 10000 to 30000 nM.
